We go through four molecules from patent US4622387A, “8-methionine calcitonin” (Armour Pharmaceutical Co., priority 1985, dated 1986).

Where a SMILES comes first, the peptide text is derived from it. Bridges are numbered along the chain shown (N, C = ends).

Experiment [1] has as its system serum calcium concentration.
Method: Biological Assay Of Calcitonin Analogs In Vivo
The biological potency of [8-methionine]salmon calcitonin was determined by comparing the reduction of serum calcium concentration which followed administration by graded doses of [Met^8 ]SCT and synthetic salmon calcitonin standard. Rats were divided into four groups of seven animals, and each group was assigned at random to a dose of standard or test solution. Low and high doses were chosen from the linear portion of the dose-response curve. For the salmon calcitonin standard, the values were 0.7 and 2.1 mcg. peptide/100 g. body weight (BW). This dose approximates 3 and 9 MU/100 g. BW. Peptides were given by subcutaneous injection (0.2 ml/100 g. BW) and blood was withdrawn 1 hour later for serum calcium determination. Sera are processed and analyzed within two hours of collection. Results were analyzed within two hours of collection.
Experiment [2] relates to serum calcium (hypocalcemic potency). Conditions: Monikawa et al., Experientia 32(9), 1104-1106 (1976); cited from earlier work.

`CC(C)C[C@H](NC(=O)[C@H](CCCCN)NC(=O)CNC(=O)[C@H](CC(C)C)NC(=O)[C@@H](NC(=O)[C@@H]1CSSC[C@H](N)C(=O)N[C@@H](CO)C(=O)N[C@@H](CC(N)=O)C(=O)N[C@@H](CC(C)C)C(=O)N[C@@H](CO)C(=O)N[C@@H]([C@@H](C)O)C(=O)N1)C(C)C)C(=O)N[C@@H](CO)C(=O)N[C@@H](CCC(N)=O)C(=O)N[C@@H](CCC(=O)O)C(=O)N[C@@H](CC(C)C)C(=O)N[C@@H](Cc1c[nH]cn1)C(=O)N[C@@H](CCCCN)C(=O)N[C@@H](CC(C)C)C(=O)N[C@@H](CCC(N)=O)C(=O)N[C@H](C(=O)N[C@@H](Cc1ccc(O)cc1)C(=O)N1CCC[C@H]1C(=O)N[C@@H](CCCNC(=N)N)C(=O)N[C@H](C(=O)N[C@@H](CC(N)=O)C(=O)N[C@H](C(=O)NCC(=O)N[C@@H](CO)C(=O)NCC(=O)N[C@H](C(=O)N1CCC[C@H]1C(N)=O)[C@@H](C)O)[C@@H](C)O)[C@@H](C)O)[C@@H](C)O` [standard salmon calcitonin, Salmon calcitonin]: the “potency content of the standard” value in experiment [1] (standard salmon calcitonin, independently determined) is “greater than 4,000 IU/mg”.

Regarding “(1,7-α-L-aminosuberic acid)eel calcitonin”, the hypocalcemic potency entry in experiment [2] is given as “about 3400 Iu/mg”.

For the molecule `CSCC[C@H](NC(=O)[C@@H]1CSSC[C@H](N)C(=O)N[C@@H](CO)C(=O)N[C@@H](CC(N)=O)C(=O)N[C@@H](CC(C)C)C(=O)N[C@@H](CO)C(=O)N[C@@H]([C@@H](C)O)C(=O)N1)C(=O)N[C@@H](CC(C)C)C(=O)NCC(=O)N[C@@H](CCCCN)C(=O)N[C@@H](CC(C)C)C(=O)N[C@@H](CO)C(=O)N[C@@H](CCC(N)=O)C(=O)N[C@@H](CCC(=O)O)C(=O)N[C@@H](CC(C)C)C(=O)N[C@@H](Cc1c[nH]cn1)C(=O)N[C@@H](CCCCN)C(=O)N[C@@H](CC(C)C)C(=O)N[C@@H](CCC(N)=O)C(=O)N[C@H](C(=O)N[C@@H](Cc1ccc(O)cc1)C(=O)N1CCC[C@H]1C(=O)N[C@@H](CCCNC(=N)N)C(=O)N[C@H](C(=O)N[C@@H](CC(N)=O)C(=O)N[C@H](C(=O)NCC(=O)N[C@@H](CO)C(=O)NCC(=O)N[C@H](C(=O)N1CCC[C@H]1C(N)=O)[C@@H](C)O)[C@@H](C)O)[C@@H](C)O)[C@@H](C)O` [[Met^8]SCT, [8-methionine]salmon calcitonin] (H-CSNLSTCMLGKLSQELHKLQTYPRTNTGSGTP-NH2; disulfide 1-7), the biological potency in experiment [1] (rat, in vivo, sc) worked out at 5500 IU/mg.

For the molecule “eel calcitonin [synthetic eel calcitonin]”, the hypocalcemic potency result in experiment [2] was “around 4300 Iu/mg”.
